Source: patent publication US6737383B1, “Herbicidal oxadiazolidines” (priority 1999, dated 2004)

How the values were obtained:
morningglory = experiment: Test B pre/postemergence morningglory; format: in vivo, Ipomoea hederacea; details: for Morningglory plant response rating: scale of 0 to 10 where 0 is no effect and 10 is complete control
Outline: (§1)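 Test chemicals in a non-phytotoxic solvent mixture with surfactant were sprayed preemergence onto planted seeds and postemergence onto plants 2 to 18 cm tall (1- to 4-leaf stage). After twelve to sixteen days in a greenhouse, injury was visually rated against untreated controls from 0 (no effect) to 10 (complete control).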

blackgrass = experiment: Test B pre/postemergence blackgrass; format: in vivo, Alopecurus myosuroides; details: for Blackgrass plant response rating: scale of 0 to 10 where 0 is no effect and 10 is complete control
Outline: as §1

duck salad = experiment: Test B flood test duck salad; format: in vivo, Heteranthera limosa
Outline: (§2)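 Plants were grown to the 2-leaf stage before treatment with test chemical, then held in a greenhouse for twelve to sixteen days. Injury was visually rated against untreated controls on a 0–10 scale, where 0 is no effect and 10 is complete control.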

wild oat = experiment: Test B pre/postemergence wild oat; format: in vivo, Avena fatua; details: for Wild oats plant response rating: scale of 0 to 10 where 0 is no effect and 10 is complete control
Outline: as §1

surinam grass = experiment: Test B pre/postemergence surinam grass; format: in vivo, Brachiaria decumbens; details: for B. signalgrass plant response rating: scale of 0 to 10 where 0 is no effect and 10 is complete control
Outline: as §1

cocklebur = experiment: Test B pre/postemergence cocklebur; format: in vivo, Xanthium strumarium; details: for Cocklebur plant response rating: scale of 0 to 10 where 0 is no effect and 10 is complete control
Outline: as §1

crabgrass = experiment: Test B pre/postemergence crabgrass; format: in vivo, Digitaria sanguinalis; details: for Crabgrass plant response rating: scale of 0 to 10 where 0 is no effect and 10 is complete control
Outline: as §1

corn = experiment: Test B pre/postemergence corn; format: in vivo, Zea mays; details: for Corn plant response rating: scale of 0 to 10 where 0 is no effect and 10 is complete control
Outline: as §1

soybean = experiment: Test B pre/postemergence soybean; format: in vivo, Glycine max; details: for Soybean plant response rating: scale of 0 to 10 where 0 is no effect and 10 is complete control
Outline: as §1

rape = experiment: Test B pre/postemergence rape; format: in vivo, Brassica napus; details: for Rape plant response rating: scale of 0 to 10 where 0 is no effect and 10 is complete control
Outline: as §1

sugar beet = experiment: Test B pre/postemergence sugar beet; format: in vivo, Beta vulgaris; details: for Sugarbeets plant response rating: scale of 0 to 10 where 0 is no effect and 10 is complete control
Outline: as §1

velvetleaf = experiment: Test B pre/postemergence velvetleaf; format: in vivo, Abutilon theophrasti; details: for Velvetleaf plant response rating: scale of 0 to 10 where 0 is no effect and 10 is complete control
Outline: as §1

rice = experiment: Test B flood test rice; format: in vivo, Oryza sativa
Outline: as §2

bamyardgrass = experiment: Test B flood test barnyardgrass; format: in vivo, Echinochloa crus-galli
Outline: as §2

pigweed = experiment: Test B pre/postemergence pigweed; format: in vivo, Amaranthus retroflexus; details: for Redroot pigweed plant response rating: scale of 0 to 10 where 0 is no effect and 10 is complete control
Outline: as §1

giant foxtail = experiment: Test B pre/postemergence giant foxtail; format: in vivo, Setaria faberii; details: for Giant foxtail plant response rating: scale of 0 to 10 where 0 is no effect and 10 is complete control
Outline: as §1

[1] = Postemergence, Rate 125 g/ha, scale 0 to 10, 0 is no effect, 10 is complete control
[2] = Postemergence, Rate 250 g/ha, scale 0 to 10, 0 is no effect, 10 is complete control
[3] = Preemergence, Rate 62 g/ha, scale 0 to 10 (0 no effect, 10 complete control)
[4] = Rate 500 g/ha, Postemergence, scale 0 to 10, 0 no effect, 10 complete control
[5] = Rate 62 g/ha, flood test species, Pre-emergence, visual evaluation after twelve to sixteen days
[6] = Rate 125 g/ha, under heading Pre-emergence, flood test species, visual evaluation after twelve to sixteen days
[7] = Rate 250 g/ha, Pre-emergence, flood-test species, scale 0 to 10, 0 is no effect, 10 is complete control
[8] = Rate 500 g/ha, Pre-emergence, flood test species, scale 0 to 10 (0 no effect, 10 complete control)

CC(C)N(C(=O)n1oc(=O)n(CCl)c1=O)c1ccc(F)cc1 [Compound 376]
0: Plant response rating, Morningglory (morningglory; [1]) | Plant response rating, Morningglory (morningglory; [2]) | Plant response rating, Morningglory (morningglory; [3]) | Morningglory plant response rating (0 to 10 scale) (morningglory; Preemergence, Rate 125 g/ha) | Morningglory plant response rating (morningglory; Preemergence, Rate 250 g/ha) | Morningglory plant response rating (morningglory; Preemergence, Rate 500 g/ha) | Morningglory plant response rating (morningglory; Rate 62 g/ha, Postemergence) | Plant response rating, Morningglory (morningglory; [4]) | Plant response rating, Blackgrass (blackgrass; [1]) | Plant response rating, Blackgrass (blackgrass; [2]) | Plant response rating, Blackgrass (blackgrass; [3]) | Blackgrass plant response rating (0 to 10 scale) (blackgrass; Preemergence, Rate 125 g/ha) | Blackgrass plant response rating (blackgrass; Preemergence, Rate 250 g/ha) | Blackgrass plant response rating (blackgrass; Preemergence, Rate 500 g/ha) | Blackgrass plant response rating (blackgrass; Rate 62 g/ha, Postemergence) | Plant response rating, Blackgrass (blackgrass; [4]) | Plant response rating, Ducksalad (0 to 10 scale, 0 is no effect, 10 is complete control) (duck salad; [5]) | Ducksalad plant response rating (0 to 10 scale, 0 is no effect, 10 is complete control) (duck salad; [6]) | Ducksalad plant response rating (duck salad; [7]) | Ducksalad plant response rating (duck salad; [8]) | Plant response rating, Wild oats (wild oat; [1]) | Plant response rating, Wild oats (wild oat; [2]) | Plant response rating, Wild oats (wild oat; [3]) | Wild oats plant response rating (0 to 10 scale) (wild oat; Preemergence, Rate 125 g/ha) | Wild oats plant response rating (wild oat; Preemergence, Rate 250 g/ha) | Wild oats plant response rating (wild oat; Preemergence, Rate 500 g/ha) | Wild oats plant response rating (wild oat; Rate 62 g/ha, Postemergence) | Plant response rating, Wild oats (wild oat; [4]) | Plant response rating, B. signalgrass (surinam grass; [1]) | Plant response rating, B. signalgrass (surinam grass; [2]) | Plant response rating, B. signalgrass (surinam grass; [3]) | B. signalgrass plant response rating (0 to 10 scale, 0 is no effect, 10 is complete control) (surinam grass; Preemergence, Rate 125 g/ha) | B. signalgrass plant response rating (surinam grass; Preemergence, Rate 250 g/ha) | B. signalgrass plant response rating (surinam grass; Preemergence, Rate 500 g/ha) | B. signalgrass plant response rating (surinam grass; Rate 62 g/ha, Postemergence) | Plant response rating, B. signalgrass (surinam grass; [4]) | Plant response rating, Cocklebur (cocklebur; [1]) | Plant response rating, Cocklebur (cocklebur; [2]) | Plant response rating, Cocklebur (cocklebur; [3]) | Cocklebur plant response rating (0 to 10 scale) (cocklebur; Preemergence, Rate 125 g/ha) | Cocklebur plant response rating (cocklebur; Preemergence, Rate 250 g/ha) | Cocklebur plant response rating (cocklebur; Preemergence, Rate 500 g/ha) | Cocklebur plant response rating (cocklebur; Rate 62 g/ha, Postemergence) | Plant response rating, Cocklebur (cocklebur; [4]) | Plant response rating, Crabgrass (crabgrass; [1]) | Plant response rating, Crabgrass (crabgrass; [2]) | Plant response rating, Crabgrass (crabgrass; [3]) | Crabgrass plant response rating (0 to 10 scale) (crabgrass; Preemergence, Rate 125 g/ha) | Crabgrass plant response rating (crabgrass; Preemergence, Rate 250 g/ha) | Crabgrass plant response rating (crabgrass; Preemergence, Rate 500 g/ha) | Crabgrass plant response rating (crabgrass; Rate 62 g/ha, Postemergence) | Plant response rating, Crabgrass (crabgrass; [4]) | Plant response rating, Corn (corn; [1]) | Plant response rating, Corn (corn; [2]) | Plant response rating, Corn (corn; [3]) | Corn plant response rating (0 to 10 scale) (corn; Preemergence, Rate 125 g/ha) | Corn plant response rating (corn; Preemergence, Rate 250 g/ha) | Corn plant response rating (corn; Preemergence, Rate 500 g/ha) | Corn plant response rating (corn; Rate 62 g/ha, Postemergence) | Plant response rating, Corn (corn; [4]) | Plant response rating, Soybean (soybean; [1]) | Plant response rating, Soybean (soybean; [2]) | Plant response rating, Soybean (soybean; [3]) | Soybean plant response rating (0 to 10 scale) (soybean; Preemergence, Rate 125 g/ha) | Soybean plant response rating (soybean; Preemergence, Rate 250 g/ha) | Soybean plant response rating (soybean; Preemergence, Rate 500 g/ha) | Soybean plant response rating (soybean; Rate 62 g/ha, Postemergence) | Plant response rating, Soybean (soybean; [4]) | Plant response rating, Rape (rape; [1]) | Plant response rating, Rape (rape; [2]) | Plant response rating, Rape (rape; [3]) | Rape plant response rating (0 to 10 scale) (rape; Preemergence, Rate 125 g/ha) | Rape plant response rating (rape; Preemergence, Rate 250 g/ha) | Rape plant response rating (rape; Preemergence, Rate 500 g/ha) | Rape plant response rating (rape; Rate 62 g/ha, Postemergence) | Plant response rating, Rape (rape; [4]) | Plant response rating, Sugarbeets (sugar beet; [1]) | Plant response rating, Sugarbeets (sugar beet; [2]) | Plant response rating, Sugarbeets (sugar beet; [3]) | Sugarbeets plant response rating (0 to 10 scale) (sugar beet; Preemergence, Rate 125 g/ha) | Sugarbeets plant response rating (sugar beet; Preemergence, Rate 250 g/ha) | Sugarbeets plant response rating (sugar beet; Preemergence, Rate 500 g/ha) | Sugarbeets plant response rating (sugar beet; Rate 62 g/ha, Postemergence) | Plant response rating, Sugarbeets (sugar beet; [4]) | Plant response rating, Velvetleaf (velvetleaf; [1]) | Plant response rating, Velvetleaf (velvetleaf; [2]) | Plant response rating, Velvetleaf (velvetleaf; [3]) | Velvetleaf plant response rating (0 to 10 scale) (velvetleaf; Preemergence, Rate 125 g/ha) | Velvetleaf plant response rating (velvetleaf; Preemergence, Rate 250 g/ha) | Velvetleaf plant response rating (velvetleaf; Preemergence, Rate 500 g/ha) | Velvetleaf plant response rating (velvetleaf; Rate 62 g/ha, Postemergence) | Plant response rating, Velvetleaf (velvetleaf; [4]) | Plant response rating, Rice (0 to 10 scale, 0 is no effect, 10 is complete control) (rice; [5]) | Rice plant response rating (0 to 10 scale, 0 is no effect, 10 is complete control) (rice; [6]) | Rice plant response rating (rice; [7]) | Rice plant response rating (rice; [8]) | Plant response rating, Barnyardgrass (0 to 10 scale, 0 is no effect, 10 is complete control) (bamyardgrass; [5]) | Barnyardgrass plant response rating (0 to 10 scale, 0 is no effect, 10 is complete control) (bamyardgrass; [6]) | Barnyardgrass plant response rating (bamyardgrass; [7]) | Barnyardgrass plant response rating (bamyardgrass; [8]) | Plant response rating, Redroot pigweed (pigweed; [1]) | Plant response rating, Redroot pigweed (pigweed; [2]) | Plant response rating, Redroot pigweed (pigweed; [3]) | Redroot pigweed plant response rating (0 to 10 scale) (pigweed; Preemergence, Rate 125 g/ha) | Redroot pigweed plant response rating (pigweed; Preemergence, Rate 250 g/ha) | Redroot pigweed plant response rating (pigweed; Preemergence, Rate 500 g/ha) | Redroot pigweed plant response rating (pigweed; Rate 62 g/ha, Postemergence) | Plant response rating, Redroot pigweed (pigweed; [4]) | Plant response rating, Giant foxtail (giant foxtail; [1]) | Plant response rating, Giant foxtail (giant foxtail; [2]) | Plant response rating, Giant foxtail (giant foxtail; [3]) | Giant foxtail plant response rating (0 to 10 scale) (giant foxtail; Preemergence, Rate 125 g/ha) | Giant foxtail plant response rating (giant foxtail; Preemergence, Rate 250 g/ha) | Giant foxtail plant response rating (giant foxtail; Preemergence, Rate 500 g/ha) | Giant foxtail plant response rating (giant foxtail; Rate 62 g/ha, Postemergence) | Plant response rating, Giant foxtail (giant foxtail; [4])
